Experimental data from US9624256B2, “Coordination complexes, pharmaceutical solutions comprising coordination complexes, and methods of treating patients” (SYNTHONICS, INC., priority 2004, dated 2017).
“And” between values parts separate entries of the source, which are not always exact repeats. Equal entries are not always repeated. Where two headings read alike, the source gives them in different places. Blank lines part the entries; values can stand above or below the molecule they belong to.

Columns and labels:
[1] = for pH: Table 2, pH of the solution; for increase in water solubility over SAHA: pH 10
[2] = Precipitation test after adjusting aqueous solution to pH 7.0; format: physicochemical; settings: 32 mg based on topiramate in 1 mL H2O, pH adjusted to 7.0 with 1.0 N HCl
[3] = cited from earlier work
[4] = 23° C., cited from earlier work
[5] = pH 7.4; cited from earlier work
[6] = highly variable; cited from earlier work
[7] = Solubility/pH studies of topiramate-containing coordination complexes (gravimetric); format: physicochemical
Procedure: Solubility/pH Studies of Topiramate-Containing Coordination Complexes: Initial screening of drug candidates was based on a qualitative determination of aqueous solubility using gravimetric methods. Briefly, a known quantity of coordination compound (ca. 50 mg) was dissolved in a known amount of water ([…]). The pH of the resulting mixture was measured, and the solution/suspension was filtered and concentrated to afford a minimal solubility value.

Molecule: CC1(C)O[C@@H]2[C@@H](CO[C@@]3(COS([NH-])(=O)=O)OC(C)(C)O[C@@H]23)O1.CC1(C)O[C@@H]2[C@@H](CO[C@@]3(COS([NH-])(=O)=O)OC(C)(C)O[C@@H]23)O1.[Ca+2] [Calcium Salt of Topiramate]
precipitation on standing [2]: A precipitate formed immediately

Molecule: CC1(C)O[C@@H]2[C@@H](CO[C@@]3(COS(N)(=O)=O)OC(C)(C)O[C@@H]23)O1 [topiramate, 2,3:4,5-bis-O-isopropylidene-β-D-fructopyranose sulfamate]
water solubility [4]: about 9.8 mg/mL and ~0.029 M | log D [5]: −0.5

Molecule: O=C(CCCCCCC(=O)Nc1ccccc1)N[O-].O=C(CCCCCCC(=O)Nc1ccccc1)N[O-].[Ca+2] [Compound 2, Ca(saha)2]
pH of the solution [1]: 8.60 | pH [1]: 8.6 | pH of solution compared with SAHA ([1]; in words): slightly higher than the pH of a solution of SAHA itself

Molecule: O=C(CCCCCCC(=O)Nc1ccccc1)N[O-].O=C(CCCCCCC(=O)Nc1ccccc1)N[O-].[Mg+2] [Compound 1, Mg(saha)2]
pH of the solution [1]: 7.75 | pH [1]: 7.94

Molecule: CC1(C)O[C@@H]2[C@@H](CO[C@@]3(COS([NH-])(=O)=O)OC(C)(C)O[C@@H]23)O1.CC1(C)O[C@@H]2[C@@H](CO[C@@]3(COS([NH-])(=O)=O)OC(C)(C)O[C@@H]23)O1.[Ca+2] [Calcium(topiramate)2]
precipitation on standing [2]: No precipitate was observed upon standing for 2 hours | solubility relative to free topiramate ([7]; pH 7.0): at least three times the solubility of free topiramate | solubility (minimal value) ([7]; pH 7.0, gravimetric): ≥ 34 mg/mL

Molecule: CC1(C)O[C@@H]2[C@@H](CO[C@@]3(COS([NH-])(=O)=O)OC(C)(C)O[C@@H]23)O1.O.O.O.[Na+] [sodium topiramate trihydrate]
water solubility ([4]; trihydrate): about 1300 mg/mL and ~3.59 M

Continued, in another order:

pH of the solution [1]: 5.86 | pH [1]: 5.67
Molecule: O=C(CCCCCCC(=O)Nc1ccccc1)N[O-].O=C(CCCCCCC(=O)Nc1ccccc1)N[O-].[Ni+2] [Compound 3, Ni(saha)2]

pH of the solution [1]: 8.75 | pH [1]: 8.75
Molecule: Ca(saha)(tricine) [Compound 4]

increase in water solubility over SAHA [1]: ~19 fold
Molecule: Ca(saha)(quinic acid) [Compound 5]

pH of the solution [1]: around 10 | pH [1]: 10 | pH of the solution ([1]; listed as sodium salt of SAHA): 10 | increase in water solubility over SAHA [1]: ~7 fold
Molecule: O=C(CCCCCCC(=O)Nc1ccccc1)N[O-].[Na+] [Na(saha)]
solution pH required to stay in solution ([3]; prior study, Memorial Sloan Kettering Cancer Center): above 11

pH [1]: 7.95
Molecule: O=C(CCCCCCC(=O)Nc1ccccc1)NO [SAHA, suberoylanilide hydroxamic acid]
oral bioavailability [6]: less than 50% | water solubility [3]: about 0.1 mg/mL
